From patent US20180064691A1, “Antibacterial compositions” (WOCKHARDT LIMITED, priority 2016, published 2018)

Experiments:
Experiment in all cases: quantitative drug diffusion assay (zone of inhibition, CLSI)
Assay type in all cases: cell-based
[1] = system: E. coli B-123; parameters: key: (R): Resistant; (I): Intermediate; (S): Sensitive (Interpretation as per CLSI recommendations, 2010); conditions: CLSI recommendations, 2010
Source text: (§1) Antibacterial activity of cefepime combination with tazobactam against various bacterial strains, including those bacteria that are known to product one or more beta-lactamase, was investigated in quantitative drug diffusion assay performed as per CLSI recommendations (Clinical and Laboratory Standards Institute (CLSI), performance Standards for Antimicrobial Susceptibility Testing, 20th Informational Supplement, M 100-S20, Volume 30, No. 1, 2010).
(§2) In a typical study, overnight grown bacterial cultures after appropriate dilution were seed inoculated in the molten, cooled agar media and plates poured. Antibacterial agents containing 6 mm diameter discs were placed on the top of the agar surface. Zone of inhibition based observation was performed after 16 to 18 hours of incubation at 35±2° C. in ambient air. These assays are routinely used in determining possibility of treating a particular infection using given antibacterial agent or a composition. In general, zone inhibition values in the sensitive (S) range indicate that the strain is susceptible to that antibacterial agent or composition. It is generally assumed that the antibacterial agent or the combination under consideration would not be effective in treating the infection, if the zone inhibition values are in the resistant (R) range.

[2] = system: E. coli 7MP; parameters: key: (R): Resistant; (I): Intermediate; (S): Sensitive (Interpretation as per CLSI recommendations, 2010); conditions: CLSI recommendations, 2010
Source text: as §1, §2

[3] = system: E. coli B-89; parameters: key: (R): Resistant; (I): Intermediate; (S): Sensitive (Interpretation as per CLSI recommendations, 2010); conditions: CLSI recommendations, 2010
Source text: as §1, §2

[4] = system: E. coli S-112; parameters: key: (R): Resistant; (I): Intermediate; (S): Sensitive (Interpretation as per CLSI recommendations, 2010); conditions: CLSI recommendations, 2010
Source text: as §1, §2

[5] = system: E. coli M50; parameters: key: (R): Resistant; (I): Intermediate; (S): Sensitive (Interpretation as per CLSI recommendations, 2010); conditions: CLSI recommendations, 2010
Source text: as §1, §2

[6] = system: E. coli M-138; parameters: key to CLSI susceptibility interpretation: (R): Resistant; (I): Intermediate; (S): Sensitive (Interpretation as per CLSI recommendations, 2010)
Source text: as §1, §2

With `CO/N=C(\C(=O)N[C@@H]1C(=O)N2C(C(=O)[O-])=C(C[N+]3(C)CCCC3)CS[C@H]12)c1csc(N)n1` [Cefepime, cefepime] the CLSI susceptibility interpretation [1] was “(R)”, the CLSI susceptibility interpretation [2] was “(I)” and the CLSI susceptibility interpretation [3] was “(R)”. The CLSI susceptibility interpretation [4] was “(I)”, the CLSI susceptibility interpretation [5] was “(R)” and the “Zone of Inhibition” value ([6]; 6 mm discs, 16 to 18 hours at 35±2° C.) was “Nil”. The CLSI susceptibility interpretation ([6]; CLSI recommendations, 2010) was “(R)”.
